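The compound was tested at five concentrations on cells cultured in 96-well plates, with a 48-hour exposure period. GI50 is the concentration that inhibits growth by half.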 Calls of active or inactive are those of the source. Cut-off read from the data, not from the text of the source: active = GI50 up to about 1.1 µM and inactive = higher.

Assay in all cases: NCI anticancer screen, dose series, 48 h
In test [1] the test system is A498.
Test [2] deals with CCRF-CEM.
The subject of test [3] is HCT-116.
The subject of test [4] is HCT-15.
The test system of test [5] is HOP-92.
The subject of test [6] is Hs-578T.
Test [7] deals with MDA-MB-231.
The subject of test [8] is MDA-MB-435.
For test [9], the system named is MOLT-4.
The subject of test [10] is NCI-H460.
Test [11] deals with OVCAR-5.
Test [12] deals with OVCAR-8.
Test [13] has as its system PC-3.
The subject of test [14] is SK-MEL-28.
Test [15] concerns SNB-19.
For test [16], the system named is SNB-75.
Test [17] deals with T47D.
In test [18] the test system is HCC 2998.
For test [19], the system named is OVCAR-4.

Take `CCOC(=O)NNC(=O)NCCCCNC(=O)NNC(=O)OCC`: the GI50 in [1] was > 100 µM (inactive); in test [2], > 100 µM (inactive); in [3], > 100 µM (inactive); in [4], above 100 µM; in [5], > 100 µM (inactive); in [6], > 100 µM (inactive). Further, the GI50 in test [7], in test [8], in test [9], in test [10], in test [11] and in test [12] was > 100 µM (inactive) throughout. Besides, the GI50 in test [13] is > 100 µM (inactive); in [14], > 100 µM (inactive); in test [15] it was > 100 µM (inactive); in test [16], 0.458 µM (active); in [17] it was > 100 µM (inactive).
Regarding `O=c1n(-c2ccccc2)c(=O)n2n1C1C=CC2CCCCCC1`, the GI50 is > 100 µM (inactive) in test [2]; > 100 µM (inactive) in [18]; > 100 µM (inactive) in [3]; above 100 µM in [4]; > 100 µM (inactive) in [5]; 36.1 µM (inactive) in [6]. The GI50 in [7], in test [8], in [9], in [10], in test [19] and in [11] was > 100 µM (inactive) each time. Further, the GI50 in test [12], in test [13], in test [14], in [15], in test [16] and in test [17] was > 100 µM (inactive) each time.
On to `CN1N=C(c2ccncc2)OC1c1ccc(C(F)(F)F)cc1` (stereo not given), for which the GI50 in test [1] was > 100 µM (inactive); in test [2] it was > 100 µM (inactive); in test [18], > 100 µM (inactive); in [3], > 100 µM (inactive); in test [4], above 100 µM; in [6] it was > 100 µM (inactive). In addition, the GI50 in test [7] was 63.5 µM (inactive); in test [8], > 100 µM (inactive); in test [9] it was > 100 µM (inactive); in [10] it was > 100 µM (inactive); in [19] it was > 100 µM (inactive); in test [11], > 100 µM (inactive). Further, the GI50 in [12] was > 100 µM (inactive); in test [13], > 100 µM (inactive); in [14] it was > 100 µM (inactive); in test [15], > 100 µM (inactive); in [16] it was 0.491 µM (active); in [17] it was 0.495 µM (active).
Turning to `COc1ccc([C@H]2CC(=O)C[C@H](c3ccc(OC)cc3OC)C23C(=O)c2ccccc2C3=O)c(OC)c1`, the GI50 in [2] was > 100 µM (inactive); in [18] it was > 100 µM (inactive); in test [3] it was > 100 µM (inactive); in test [4], above 100 µM; in test [5], 27.3 µM (inactive); in test [6] it was > 100 µM (inactive). Besides, the GI50 in test [7], in test [8], in [9], in test [10], in [19] and in test [11] was > 100 µM (inactive) each time. Also, the GI50 in test [12] was 99.5 µM (inactive); in test [13], > 100 µM (inactive); in [14] it was > 100 µM (inactive); in test [15] it was > 100 µM (inactive); in test [16], 26.9 µM (inactive); in test [17], > 100 µM (inactive).
Take `COc1ccc(/N=C2/SC(=N/N=c3\sc4ccccc4n3C)S/C2=N/c2ccc(OC)cc2)cc1`: the GI50 in test [18] was > 100 µM (inactive); in test [3], 29.8 µM (inactive); in test [4], above 100 µM; in test [5] it was 89.1 µM (inactive); in test [6], 36.2 µM (inactive); in test [7], 2.97 µM (inactive). Further, the GI50 in [8] is > 100 µM (inactive); in test [9], 13.1 µM (inactive); in test [10], > 100 µM (inactive); in test [11] it was > 100 µM (inactive); in test [12], > 100 µM (inactive); in test [13] it was > 100 µM (inactive). Moreover, the GI50 in test [14] was > 100 µM (inactive); in test [15], > 100 µM (inactive); in test [16] it was 24.6 µM (inactive); in test [17], 23.3 µM (inactive).
Take `CCN(CC)c1ccc(C2SCC(=O)N2c2ccc(NC(=O)c3ccc(N4C(=O)CSC4c4ccc(N(CC)CC)cc4)cc3)cc2)cc1` (stereo not given): the GI50 was 35.5 µM (inactive) in test [2]; > 100 µM (inactive) in test [18]; > 100 µM (inactive) in test [3]; above 100 µM in test [4]; > 100 µM (inactive) in test [5]; > 100 µM (inactive) in test [6]. In addition, the GI50 in [7] is > 100 µM (inactive); in test [8], > 100 µM (inactive); in [9], 29.7 µM (inactive); in test [10] it was > 100 µM (inactive); in [19], 70.8 µM (inactive); in test [11], > 100 µM (inactive). The GI50 in [12] was > 100 µM (inactive); in [13], > 100 µM (inactive); in test [14] it was > 100 µM (inactive); in test [15], > 100 µM (inactive); in test [16], > 100 µM (inactive); in test [17] it was 26.2 µM (inactive).
For `Cc1ccc(OCC2OC(C#N)C(Oc3ccc(C)cc3)C2Oc2ccc(C)cc2)cc1` (stereo not given), the GI50 in test [1] is > 100 µM (inactive); in [2] it was > 100 µM (inactive); in test [18] it was > 100 µM (inactive); in test [3], > 100 µM (inactive); in [4], above 100 µM; in test [6], > 100 µM (inactive). Also, the GI50 in [7], in test [8], in [9], in [10], in [19] and in test [11] was > 100 µM (inactive) throughout. Besides, the GI50 in test [12] was > 100 µM (inactive); in test [13], > 100 µM (inactive); in test [14], > 100 µM (inactive); in test [15], > 100 µM (inactive); in test [16], 6.79 µM (inactive); in test [17] it was > 100 µM (inactive).
As for `C[N+]1(CCCC[N+]2(C)CCCCCCC2)CCCCCCC1`, the GI50 in [1] is > 100 µM (inactive); in test [2], > 100 µM (inactive); in test [3], > 100 µM (inactive); in test [4] it was above 100 µM; in test [5] it was 77.1 µM (inactive); in test [6], 0.227 µM (active). Besides, the GI50 in test [7], in test [8], in [9], in [10], in test [19] and in test [11] was > 100 µM (inactive) in each case. For the same compound, the GI50 in test [12], in test [13], in [14], in test [15] and in test [17] was > 100 µM (inactive) in each case.

The record behind these values is ChEMBL document CHEMBL1201862, “PubChem BioAssay data set” (2004).
